# Test results reported in PubChem BioAssay AID330 (DTP/NCI, 2004).
# Where “and” joins values, the source holds several entries; their conditions need not be identical. Equal values may be shown once. Inconclusive results and toxic doses are left out.
# Tested on: P388 leukemia ip, CD2F1 mice, survival T/C
# Assay: NCI In Vivo Anticancer Drug Screen. Data for tumor model P388 Leukemia (intraperitoneal) in CD2F1 (CDF1) mice
# Conditions: endpoint: median survival time, higher = longer survival
# Procedure, shortened: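 Mice carrying the transplanted tumor received test compound or vehicle. Survival was recorded in each group, and the value is the treated-group measurement divided by that of the vehicle-treated control group.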
# [1] = dose: 6.25 mg/kg/injection, schedule: Q01DX009 (ip), vehicle: saline
# [2] = dose: 25.0 mg/kg/injection, schedule: Q01DX009 (ip), vehicle: saline with Tween-80
# [3] = dose: 50.0 mg/kg/injection, schedule: Q01DX009 (ip), vehicle: saline with Tween-80
# [4] = dose: 100.0 mg/kg/injection, schedule: Q01DX009 (ip), vehicle: saline with Tween-80
# [5] = dose: 100.0 mg/kg/injection, schedule: Q04DX003 (ip), vehicle: saline
# [6] = dose: 25.0 mg/kg/injection, schedule: Q01DX005 (ip), vehicle: saline with Tween-80
# [7] = dose: 50.0 mg/kg/injection, schedule: Q01DX005 (ip), vehicle: saline with Tween-80
# [8] = dose: 100.0 mg/kg/injection, schedule: Q01DX005 (ip), vehicle: saline with Tween-80
# [9] = dose: 12.5 mg/kg/injection, schedule: Q01DX009 (ip), vehicle: saline with Tween-80
# [10] = dose: 100.0 mg/kg/injection, schedule: Q04DX003 (ip), vehicle: saline with Tween-80
# [11] = dose: 12.5 mg/kg/injection, schedule: Q04DX003 (ip), vehicle: Klucel (hydroxypropylcellulose) (HPC)
# [12] = dose: 25.0 mg/kg/injection, schedule: Q04DX003 (ip), vehicle: Klucel (hydroxypropylcellulose) (HPC)
# [13] = dose: 50.0 mg/kg/injection, schedule: Q04DX003 (ip), vehicle: saline
# [14] = dose: 60.0 mg/kg/injection, schedule: Q01DX005 (ip), vehicle: saline with Tween-80
# [15] = dose: 120.0 mg/kg/injection, schedule: Q01DX005 (ip), vehicle: saline with Tween-80
# [16] = dose: 240.0 mg/kg/injection, schedule: Q01DX005 (ip), vehicle: saline with Tween-80
# [17] = dose: 50.0 mg/kg/injection, schedule: Q01DX005 (ip), vehicle: Klucel (hydroxypropylcellulose) (HPC)
# [18] = dose: 100.0 mg/kg/injection, schedule: Q01DX005 (ip), vehicle: Klucel (hydroxypropylcellulose) (HPC)
# [19] = dose: 200.0 mg/kg/injection, schedule: Q01DX005 (ip), vehicle: Klucel (hydroxypropylcellulose) (HPC)
# [20] = dose: 200.0 mg/kg/injection, schedule: Q04DX003 (ip), vehicle: saline with Tween-80
# [21] = dose: 200.0 mg/kg/injection, schedule: Q01DX005 (ip), vehicle: saline with Tween-80
smiles,measurement,setting,value
C[N+](C)(C)CCCCC[N+](C)(C)C,T/C,[1],110 % of control
same,T/C,"dose: 12.5 mg/kg/injection, schedule: Q01DX009 (ip), vehicle: saline",110 % of control
same,T/C,[2],100 % of control
same,T/C,"dose: 25.0 mg/kg/injection, schedule: Q01DX009 (ip), vehicle: saline",110 % of control
same,T/C,[3],104 % of control
same,T/C,[4],100 % of control
CN(C)c1ccc(C(c2c(O)c3ccccc3oc2=O)c2c(O)c3ccccc3oc2=O)cc1,T/C,"dose: 3.75 mg/kg/injection, schedule: Q01DX005 (ip), vehicle: saline with Tween-80",99 % of control
same,T/C,"dose: 7.5 mg/kg/injection, schedule: Q01DX005 (ip), vehicle: saline with Tween-80",91 % of control
same,T/C,"dose: 15.0 mg/kg/injection, schedule: Q01DX005 (ip), vehicle: saline with Tween-80",88 % of control and 98 % of control
CC/C(=N/NS(=O)(=O)c1ccc(C)cc1)c1ccc(O)cc1,T/C,[5],107 % of control
same,T/C,"dose: 200.0 mg/kg/injection, schedule: Q04DX003 (ip), vehicle: saline",100 % of control
same,T/C,"dose: 400.0 mg/kg/injection, schedule: Q04DX003 (ip), vehicle: saline",98 % of control
CC1=CC(=O)C(=O)C2=C1OC1(C2)C(C)CCC2C3(C)CCC(O)C(C)(C)C3CCC21C (centres undefined),T/C,"dose: 25.0 mg/kg/injection, schedule: Q01DX005 (ip), vehicle: distilled water + Tween-80",95 % of control
same,T/C,[6],95 % of control
same,T/C,"dose: 50.0 mg/kg/injection, schedule: Q01DX005 (ip), vehicle: distilled water + Tween-80",115 % of control
same,T/C,[7],111 % of control
same,T/C,[8],109 % of control
CC1C=CC(C)N(C(N)=O)N1C(N)=O (centres undefined),T/C,"dose: 100.0 mg/kg/injection, schedule: Q01DX001 (ip), vehicle: saline with Tween-80",98 % of control
same,T/C,"dose: 200.0 mg/kg/injection, schedule: Q01DX001 (ip), vehicle: saline with Tween-80",100 % of control
same,T/C,"dose: 400.0 mg/kg/injection, schedule: Q01DX001 (ip), vehicle: saline with Tween-80",91 % of control
S=C(SSC(=S)C1CCCC1=NC1CCCCC1)C1CCCC1=NC1CCCCC1 (centres undefined),T/C,"dose: 50.0 mg/kg/injection, schedule: Q01DX009 (ip), vehicle: Klucel (hydroxypropylcellulose) (HPC)",101 % of control
same,T/C,"dose: 100.0 mg/kg/injection, schedule: Q01DX009 (ip), vehicle: Klucel (hydroxypropylcellulose) (HPC)",108 % of control
same,T/C,"dose: 200.0 mg/kg/injection, schedule: Q01DX009 (ip), vehicle: Klucel (hydroxypropylcellulose) (HPC)",108 % of control
CN(C)c1nc(N)c(N=O)c(=O)[nH]1,T/C,[9],104 % of control
same,T/C,[2],94 % of control
same,T/C,[3],94 % of control
same,T/C,"dose: 50.0 mg/kg/injection, schedule: Q01DX009 (ip), vehicle: saline",87 % of control
same,T/C,"dose: 50.0 mg/kg/injection, schedule: Q04DX003 (ip), vehicle: saline with Tween-80",94 % of control
same,T/C,[10],93 % of control
COc1cc(/C=C/C2=C(C)C(=O)CC(c3cc(OC)c(OC)c(OC)c3)C2C)cc(OC)c1OC (centres undefined),T/C,[11],100 % of control
same,T/C,[12],101 % of control
same,T/C,"dose: 50.0 mg/kg/injection, schedule: Q04DX003 (ip), vehicle: Klucel (hydroxypropylcellulose) (HPC)",97 % of control
COc1cccc(-c2nnc(-c3nc[nH]c3C)o2)c1,T/C,"dose: 100.0 mg/kg/injection, schedule: Q04DX002 (ip), vehicle: Klucel (hydroxypropylcellulose) (HPC)",100 % of control
same,T/C,"dose: 200.0 mg/kg/injection, schedule: Q04DX002 (ip), vehicle: Klucel (hydroxypropylcellulose) (HPC)",95 % of control
C[n+]1ccc2cc(-c3ccccc3)c3ccccc3c2c1,T/C,"dose: 1.56 mg/kg/injection, schedule: Q01DX009 (ip), vehicle: saline",109 % of control
same,T/C,"dose: 3.13 mg/kg/injection, schedule: Q01DX009 (ip), vehicle: saline",116 % of control
same,T/C,[1],109 % of control
CCS/C(N)=C(\C#N)C(SCC)(SCC)SCC,T/C,[13],107 % of control
same,T/C,[5],106 % of control
CN1NC(c2ccccc2)=NN=C1c1ccccc1,T/C,[14],104 % of control
same,T/C,[15],102 % of control
same,T/C,[16],105 % of control
NC(=O)C12CCCCC1CCC(=O)C2 (centres undefined),T/C,"dose: 2.5 mg/kg/injection, schedule: Q01DX009 (ip), vehicle: saline",100 % of control
same,T/C,"dose: 5.0 mg/kg/injection, schedule: Q01DX009 (ip), vehicle: saline",100 % of control
same,T/C,"dose: 10.0 mg/kg/injection, schedule: Q01DX009 (ip), vehicle: saline",100 % of control
Nc1ccc2c(n1)NCC/C2=N\Nc1ccc(F)cc1,T/C,[3],105 % of control
same,T/C,[4],105 % of control
OC(c1ccccc1)C(O)C(c1ccccc1)N1CCCCC1 (centres undefined),T/C,"dose: 100.0 mg/kg/injection, schedule: Q01DX009 (ip), vehicle: saline",92 % of control
same,T/C,"dose: 200.0 mg/kg/injection, schedule: Q01DX009 (ip), vehicle: saline",92 % of control
COc1ccccc1N=C(C)C1C(=O)c2ccccc2C1=O,T/C,[17],104 % of control
same,T/C,[18],104 % of control
same,T/C,[19],100 % of control
C[n+]1cccc(SC2CCC3CC4CC3C2C4)c1 (centres undefined),T/C,[9],113 % of control
same,T/C,[2],102 % of control
CCC12CCCN3CCC4(c5ccc(OC)cc5N(C)C4C(O)(OC(C)=O)C1OC(C)O)C32 (centres undefined),T/C,[7],100 % of control
same,T/C,[8],87 % of control
CC1([N+](=O)[O-])C(=O)C2(N3CCCCC3)CCCC2C1c1ccccc1 (centres undefined),T/C,"dose: 60.0 mg/kg/injection, schedule: Q01DX005 (ip), vehicle: Klucel (hydroxypropylcellulose) (HPC)",99 % of control
same,T/C,"dose: 120.0 mg/kg/injection, schedule: Q01DX005 (ip), vehicle: Klucel (hydroxypropylcellulose) (HPC)",96 % of control
same,T/C,"dose: 240.0 mg/kg/injection, schedule: Q01DX005 (ip), vehicle: Klucel (hydroxypropylcellulose) (HPC)",97 % of control
COc1ccc(N=Nc2c(O)n(-c3ccc(Br)cc3)c(=S)n(-c3ccc(OC)cc3)c2=O)cc1,T/C,[10],96 % of control
same,T/C,[20],87 % of control
COC1=CCC(CCNC(=O)c2cc3c(cc2[N+](=O)[O-])OCO3)=CC1,T/C,[14],101 % of control
same,T/C,[15],93 % of control
same,T/C,[16],98 % of control
O=C(C(c1ccccc1)c1ccccc1)N1CCCCC1c1ccccc1 (centres undefined),T/C,[7],102 % of control
same,T/C,[8],92 % of control
same,T/C,[21],97 % of control
Oc1c(Cl)c(Cl)c(O)c(Cl)c1Cl,T/C,"dose: 6.25 mg/kg/injection, schedule: Q04DX003 (ip), vehicle: Klucel (hydroxypropylcellulose) (HPC)",98 % of control
same,T/C,[11],99 % of control
same,T/C,[12],98 % of control
COc1cc2c(c(OC)c1OC)-c1ccc(OC)c(=O)cc1[C@@H](N(C)C=O)CC2,T/C,"dose: 1.25 mg/kg/injection, schedule: Q01DX009 (ip), vehicle: Klucel (hydroxypropylcellulose) (HPC)",171 % of control
COC(=O)C(CCCCNC(=O)OCc1ccccc1)NC(=O)C(CCCCNC(=O)OCc1ccccc1)NC(=O)OC(C)(C)C (centres undefined),T/C,"dose: 6.25 mg/kg/injection, schedule: Q01DX005 (ip), vehicle: saline with Tween-80",100 % of control
same,T/C,"dose: 12.5 mg/kg/injection, schedule: Q01DX005 (ip), vehicle: saline with Tween-80",97 % of control
same,T/C,[6],97 % of control
Cc1ncc([N+](=O)[O-])n1CCSC(Cl)(Cl)Cl,T/C,"dose: 12.5 mg/kg/injection, schedule: Q04DX003 (ip), vehicle: saline",99 % of control and 112 % of control
same,T/C,"dose: 25.0 mg/kg/injection, schedule: Q04DX003 (ip), vehicle: saline",102 % of control and 111 % of control
same,T/C,[13],112 % of control and 118 % of control
same,T/C,[5],112 % of control and 89 % of control
O=C(NCCCC1NC(=O)/C(=C(O)/C=C/C=C/c2ccccc2)C1=O)OCc1ccccc1 (centres undefined),T/C,[7],88 % of control
same,T/C,[21],92 % of control
CNC(=O)c1ccccc1CNC(=S)Nc1cccc(C)c1,T/C,[17],98 % of control
same,T/C,[18],98 % of control
same,T/C,[19],95 % of control
CCOC(=O)NC1CC2c3ccccc3C1c1ccccc12 (centres undefined),T/C,[14],101 % of control
same,T/C,[15],101 % of control
same,T/C,[16],107 % of control
COc1cc2c(cc1OC(C)=O)C=CCCC2=O,T/C,[10],105 % of control
same,T/C,[20],100 % of control
same,T/C,"dose: 400.0 mg/kg/injection, schedule: Q04DX003 (ip), vehicle: saline with Tween-80",105 % of control
